Source: PubChem BioAssay (NCI)
Where “and” joins values, the source holds several entries; their conditions need not be identical. Equal entries are not always repeated.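 Cells were grown in 96-well plates and exposed to each compound for 48 hours at five concentrations; endpoints were interpolated linearly between bracketing concentrations, or set to the highest concentration if not reached. Abbreviation: GI50, concentration required for 50% inhibition of growth. Definition used: TGI = concentration required for complete inhibition of growth.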

Experiments:
Assay in all cases: DTP human tumour cell line panel, 48 h
UACC-257 melanoma = test system: UACC-257 melanoma
NCI-H460 lung = test system: NCI-H460 lung
BT-549 breast = test system: BT-549 breast
SR leukemia = test system: SR leukemia
HL-60(TB) leukemia = test system: HL-60(TB) leukemia
SF-268 CNS = test system: SF-268 CNS
A498 renal = test system: A498 renal
NCI-H522 lung = test system: NCI-H522 lung
NCI-H23 lung = test system: NCI-H23 lung
UACC-62 melanoma = test system: UACC-62 melanoma

| Structure (SMILES) | GI50 (UACC-257 melanoma) [nM] | TGI (UACC-257 melanoma) [µM] | GI50 (NCI-H460 lung) | TGI (NCI-H460 lung) [µM] | GI50 (BT-549 breast) | TGI (BT-549 breast) [µM] | GI50 (SR leukemia) [µM] | TGI (SR leukemia) [µM] | GI50 (HL-60(TB) leukemia) [nM] | TGI (HL-60(TB) leukemia) [µM] | GI50 (SF-268 CNS) [µM] | TGI (SF-268 CNS) [µM] | GI50 (A498 renal) | TGI (A498 renal) | GI50 (NCI-H522 lung) [nM] | TGI (NCI-H522 lung) [µM] | GI50 (NCI-H23 lung) [µM] | TGI (NCI-H23 lung) [µM] | GI50 (UACC-62 melanoma) | TGI (UACC-62 melanoma) [µM] |
| --- | --- | --- | --- | --- | --- | --- | --- | --- | --- | --- | --- | --- | --- | --- | --- | --- | --- | --- | --- | --- |
| Nc1ccccc1C#C/C=C\C#Cc1ccccc1C(F)(F)F | 536 | 23.7 | 1530 nM | > 40 | 0.699 µM | 17.3 | 0.247 | 0.691 | 1040 | > 27.7 | 1.67 | 20.4 | 2550 nM | 16.9 µM | 2070 | 34.3 | 0.397 | 5.17 | 255 nM | 3.04 |
| O=C(/C=C/c1cccnc1)NCCCCC1CCN(C(=O)c2ccccc2)CC1 | > 100000 | > 100 | 274 nM and 76.7 nM | > 100 | 6.11 µM and 19.6 µM | > 100 | – | > 100 | > 65600 | > 100 | > 100 | > 100 | > 100000 nM and 14500 nM | > 100 µM and 97.8 µM | < 10 | > 100 | > 100 | > 100 | 70300 nM and > 58000 nM | > 100 |
| CCN(Cc1cccc(OC)c1)c1ccc(CO)c(Cl)c1 | 121 | 0.295 | 272 nM | 14.1 | 13.9 µM | 28.9 | 22.9 | 66.4 | 14600 | 51.7 | 22.5 | 71.6 | 59.8 nM | 0.191 µM | 9510 | 32.6 | 13.6 | 51 | 83.9 nM | 0.48 |
| OC1(C(O)(c2ccc(-c3ccccc3)cc2)c2ccc(-c3ccccc3)cc2)CCCCC1 | – | > 100 | – | > 100 | – | > 100 | – | > 100 | – | > 100 | – | > 100 | – | > 100 µM | – | > 100 | – | > 100 | – | > 100 |
| CCN(CC)c1ccc(/C=C\c2cc(C)c3cc(C)ccc3n2)cc1 | – | – | 3510 nM | 24.5 | 5.07 µM | > 100 | 3.41 | > 100 | 3230 | 7.66 | 6.48 | > 100 | 2190 nM | 8.33 µM | 1490 | 5.19 | 5.37 | > 100 | 3920 nM | > 100 |
| CC[C@]1(O)CC2CN(CCc3c([nH]c4ccccc34)[C@@](C(=O)OC)(c3cc4c(cc3OC)N(C)[C@H]3[C@@](O)(C(=O)OC)[C@H](OC(C)=O)[C@]5(CC)C=CCN6CC[C@]43[C@@H]65)C2)C1 (stereo partly specified) | – | – | < 5 nM | 5.8 | 0.00538 µM | 0.595 | < 0.005 | – | < 5 | < 0.005 | < 0.005 | 8.08 | 5.47 nM | 0.0994 µM | < 5 | 0.00536 | < 0.005 | 26.7 | < 5 nM | 8.91 |
| O=C1CCC(Cc2ccc(Cl)cc2Cl)C(=O)N1 (stereo unspecified) | – | > 100 | – | > 100 | – | > 100 | – | > 100 | – | > 100 | – | > 100 | – | – | – | > 100 | – | > 100 | – | > 100 |
| OCc1cn(Cc2cccc(Cl)c2)c2ccccc12 | 823 | 5.61 | 34.6 nM | 17.9 | 6.75 µM | 23.1 | 12.3 | 44.1 | 5380 | 21.1 | 14 | 38.1 | 14.2 nM | 0.0305 µM | 5950 | 22.7 | 13.3 | 43.5 | < 19.9 nM | 1.5 |
| Cc1c(N=Nc2ccc([N+](=O)[O-])cc2)nc2scc(-c3ccccc3)n12 | – | > 100 | – | > 100 | – | > 100 | – | 56.4 | – | 49.2 | – | > 100 | – | > 100 µM | – | > 100 | – | > 100 | – | > 100 |
| C1CC[N-]CC1.C1CC[N-]CC1.C1CC[N-]CC1.C1CC[N-]CC1.[Cl][Rh][Cl] | 3210 | 69.4 | 2870 nM | 26.5 | 5.6 µM | 19.3 | 4.75 | 42 | – | – | 5.21 | 27.9 | 15600 nM | 55.2 µM | 1030 | 2.65 | – | – | – | – |
| NC(=O)c1cnc(N[C@@H]2CCCC[C@@H]2N)nc1Nc1cccc(-n2nccn2)c1 | 2020 | 4.49 | 3420 nM | 12.6 | 6.37 µM | 19 | 2.23 | 6.5 | 1500 | 3.82 | 5.82 | 19.7 | 4620 nM | 17.4 µM | 4140 | 17.5 | 3.24 | 17.2 | 5480 nM | 20.3 |
| COc1ccc(/C=C/C(=O)c2cc3c(N)c(C(=O)Nc4ccccc4Cl)sc3nc2C)cc1 | 1190 | 13.5 | 2200 nM | > 50 | 7.24 µM | 32 | 3.77 | > 50 | 1740 | > 50 | 3.39 | 27.9 | 866 nM | 4.51 µM | 365 | > 50 | 4.58 | > 50 | 391 nM | 8.93 |
| Cc1cn(C2CC(F)C(CO)O2)c(=O)[nH]c1=O (stereo unspecified) | > 100000 | > 100 | 963 nM | > 100 | > 100 µM | > 100 | > 100 | > 100 | > 100000 | > 100 | – | – | – | – | > 100000 | > 100 | > 100 | > 100 | > 100000 nM | > 100 |
| Oc1ccc(/C=N\Nc2ccccn2)c(O)c1 | 2730 | 16.7 | 443 nM | 3.99 | 4.87 µM | > 100 | 0.311 | 11.7 | 243 | 0.783 | 0.494 | 6 | 1870 nM | 7.17 µM | 1290 | > 100 | 0.783 | > 100 | – | – |
